Measured values as given in patent US7125858B2, “Hyaluronic acid in the treatment of cancer” (Bioniche Life Sciences Inc., priority 1999, dated 2006).

Legend:
[1] = test system: MCF-7 human breast cancer cells; assay: MTT cell proliferation, MCF-7; assay type: cell-based
Method: (§1) Cell proliferation was measured using dimethylthiazoldiphenyltetrazolium (MTT) reduction (Mosman et al. J. Immunol. Methods 65:55, 1983). Unless otherwise stated, 100 μl of 5 mg of MTT (Sigma-Aldrich, St. Louis, Mo., USA) dissolved in 1 ml of PBS was added into each well. After 4 h, medium was removed from each well, 1.0 ml of acid-isopropanol (0.04 N HCl in isopropanol) was added and reduced MTT was solubilized by mixing. Absorbency of the reaction product was measured at a wavelength of 570 nm using a multiplate spectrophotometer reader (Elx800 Model, Bio-TEK Instruments Inc., Winooski, Vt., USA).
(§2) Unless stated otherwise 1.0×10^5 cells/ml were seeded in 6-well flat-bottom tissue culture plates and were maintained for 48 h at 37° C. in a 5% CO2 atmosphere.
(§3) PC-3, LNCAP and Du-145 human prostate cancer cells; MCF-7 human breast cancer cells; HT-1080 human fibrosarcoma cancer cells; B16F1 murine melanoma cells; and, UMUC-3, RT-4, HT-1376 and T-24 human bladder cancer cells were incubated with 0.8, 8.0 and 80 μg/ml of 5.0–7.5×10^5 Da HA (Table 2).
(§4) Unless stated otherwise 2.0×10^4 cells/ml were seeded in 24-well plates and were maintained for 48 h at 37° C. in a 5% CO2 atmosphere. MTT was used at 50 μl per well.
(§5) T-24 human bladder cancer cells, PC-3 and Du-145 human prostate cancer cells, and MCF-7 human breast cancer cell were incubated with saline or with 80.0 μg/ml of 5.0–7.5×10^5 Da HA+1.0 μg/ml of M-DNA (Table 4).
MCF-7 human breast cancer cells (2.5×10^5 cells/ml) were incubated as in Example 6 with 0.0, 0.01 and 0.1 μg/ml of 5.0–7.5×10^5 Da HA+100 μg/ml of the synthetic 6 base oligonucleotide GG(GT)1GG (SEQ ID NO:1) or +100 μg/ml of the […] 27 base oligonucleotide (GT)13G (SEQ ID NO:2) (Table 6). MTT was used at 50 μl per well.
(§6) RT-4 human bladder cancer cells and MCF-7 human breast cancer cells were incubated as in Example 6 with 0.0, 0.008 or 0.08 μg/ml of 5.0–7.5×10^5 Da HA+0.1 μg/ml of CIS, +1.0 μg/ml of 5-FU or +10 μg/ml of 5-FU (Table 7).
(§7) CD44 expression and the inhibition of proliferation by 5.0–7.5×10^5 Da HA were measured using Jurkat T cell leukemia cells; MCF-7 human breast cancer cells; RT-4, T-24, HT-1376 and UMUC-3 human bladder cancer cells; and, PC-3, Du-145 and LNCaP prostate cancer cells (Table 8)

[2] = test system: HT-1080 human fibrosarcoma cancer cells; assay: MTT cell proliferation, HT-1080; assay type: cell-based; settings: 1.0×10^5 cells/ml, 48 h
Method: as §1, §2, §3

[3] = test system: T-24 human bladder cancer cells; assay: MTT cell proliferation, T-24; assay type: cell-based; settings: 48 h
Method: as §1, §2, §3, §4, §5
(§8) HT-1376, RT-4 and T-24 human bladder cancer cells were incubated with 0.8 μg/ml of 5.0–7.5×10^5 Da HA+1.0 μg/ml of MCC (Table 5).
as §7

[4] = test system: HT-1376 human bladder cancer cells; assay: MTT cell proliferation, HT-1376; assay type: cell-based; settings: 48 h
Method: as §1, §2, §3, §4, §8, §7

IL-12 = IL-12 production by PBMCs (ELISA); assay type: cell-based, human
Method: (§9) Peripheral blood mononuclear cells (hereinafter, “PBMCs”) were isolated from the blood of 5 healthy humans by Ficoll-Hypaque (Amersham Pharmacia Biotech, Baie d'Urfée, Québec, Canada) density gradient centrifugation of whole blood. Stimulation of IL-6 and IL-12 production by the immune system cells was determined using the appropriate commercial ELISA (BioSource, Camarillo, Calif., USA). Results are expressed as the “fold” (x) increases in cytokine production by treated cells compared to control cells. PBMCs were incubated with 1 mg/ml of 5.0–7.5×10^5 Da and production of IL-6 and IL-12 was determined (Table 9). PBMCs, isolated from the blood of individual #1, were incubated with 0.008, 0.04, 0.2 and 1 mg/ml of 5.0–7.5×10^5 Da (Table 10)

IL-6 = IL-6 production by PBMCs (ELISA); assay type: cell-based, human
Method: as §9

[5] = test system: B16F1 murine melanoma cells; assay: MTT cell proliferation, B16F1; assay type: cell-based; settings: 1.0×10^5 cells/ml, 48 h
Method: as §1, §2, §3

[6] = test system: Du-145 human prostate cancer cells; assay: MTT cell proliferation, Du-145; assay type: cell-based; settings: 48 h
Method: as §1, §2, §3
(§10) PC-3. LNCaP and Du-145 human prostate cancer cells were incubated with 8.0 μg/ml of 5.0–7.5×10^5 Da HA or of <1.5×10^4 Da HA (Table 3).
as §4, §5, §7

[7] = test system: PC-3 human prostate cancer cells; assay: MTT cell proliferation, PC-3; assay type: cell-based; settings: 48 h
Method: as §1, §2, §3, §10, §4, §5, §7

[8] = test system: RT-4 human bladder cancer cells; assay: MTT cell proliferation, RT-4; assay type: cell-based
Method: as §1, §2, §3, §4, §8, §6, §7

[9] = test system: Jurkat T cell leukemia cells; assay: MTT cell proliferation, Jurkat T; assay type: cell-based; settings: HA 80 μg/ml alone
Method: as §1, §7

[10] = test system: LNCaP human prostate cancer cells; assay: MTT cell proliferation, LNCaP; assay type: cell-based; settings: 1.0×10^5 cells/ml, 48 h
Method: as §1, §2, §3, §10, §7

[11] = test system: UMUC-3 human bladder cancer cells; assay: MTT cell proliferation, UMUC-3; assay type: cell-based; settings: 1.0×10^5 cells/ml, 48 h
Method: as §1, §2, §3, §7

[12] = test system: B16F10 murine melanoma tumor; settings: HA 1 mg/ml over 7 days by Alzet osmotic pump into the immediate vicinity of the tumor; cited from earlier work
[13] = test system: rectal, gastric, breast, prostate and endometrial cancers; settings: HA >750 mg/kg administered with various other therapeutic agents over various periods of time (PCT/CA/00283); cited from earlier work
colon-26 cancer cells = settings: HA alone; colon-26 cells express high levels of HA receptors (Freemantle et al. 1995); cited from earlier work
[14] = MCF-7 2.5×10^5 cells/ml, oligonucleotide 100 μg/ml alone (HA 0.0 μg/ml)
[15] = HA 0.8 μg/ml alone, 1.0×10^5 cells/ml
[16] = HA 8.0 μg/ml alone, 1.0×10^5 cells/ml
[17] = HA 80.0 μg/ml alone (+ saline), 2.0×10^4 cells/ml, 24-well
[18] = HA 80.0 μg/ml alone, 1.0×10^5 cells/ml
[19] = HA at 0.8 μg/ml alone (+ saline), 2.0×10^4 cells/ml, 24-well
[20] = PBMCs of individual 1, HA 1 mg/ml
[21] = PBMCs of individual 2, HA 1 mg/ml
[22] = PBMCs of individual 3, HA 1 mg/ml
[23] = PBMCs of individual 4, HA 1 mg/ml
[24] = PBMCs of individual 5, HA 1 mg/ml
[25] = PBMCs of individual #1, HA 0.008 mg/ml
[26] = PBMCs of individual #1, HA 0.040 mg/ml
[27] = PBMCs of individual #1, HA 0.200 mg/ml
[28] = HA 8.0 μg/ml alone, 1.0×10^5 cells/ml, listed as 0.5–7.5 × 10^5 Da HA

(GT)13G (DNA GTGTGTGTGTGTGTGTGTGTGTGTGTG; listed as DNA, chemistry not given here) [(G1T)13G, synthetic 27 base oligonucleotide]
% inhibition of cell proliferation [1, 14]: 44%

GG(GT)1GG
% inhibition of cell proliferation [1, 14]: 20%

Hyaluronic acid [5.0–7.5 × 10^5 Da HA]
% inhibition of cell proliferation ([2]; HA 0.8 μg/ml alone): 4%
% inhibition of cell proliferation ([2]; HA 8.0 μg/ml alone): 4%
% inhibition of cell proliferation ([2]; HA 80.0 μg/ml alone): 36%
% inhibition of cell proliferation [3, 15]: 10%
% inhibition of cell proliferation [3, 16]: 8%
% inhibition of cell proliferation [3, 17]: 0%
% inhibition of cell proliferation [3, 18]: 0%
% inhibition of cell proliferation [3, 19]: 8%
% inhibition of cell proliferation ([1]; MCF-7 2.5×10^5 cells/ml, HA 0.01 μg/ml alone, no oligonucleotide): 6%
% inhibition of cell proliferation ([1]; MCF-7 2.5×10^5 cells/ml, HA 0.1 μg/ml alone, no oligonucleotide): 5%
% inhibition of cell proliferation ([1]; MCF-7, HA 0.008 μg/ml alone (+ saline), as in Example 6): 12%
% inhibition of cell proliferation ([1]; MCF-7, HA 0.08 μg/ml alone (+ saline), as in Example 6): 12%
% inhibition of cell proliferation ([1]; MCF-7, HA 0.8 μg/ml alone, 1.0×10^5 cells/ml, 48 h): 19%
% inhibition of cell proliferation ([1]; MCF-7, HA 8.0 μg/ml alone, 1.0×10^5 cells/ml, 48 h): 24%
% inhibition of cell proliferation ([1]; MCF-7, HA 80.0 μg/ml alone (+ saline), 2.0×10^4 cells/ml, 24-well, 48 h): 35%
% inhibition of cell proliferation ([1]; MCF-7, HA 80.0 μg/ml alone, 1.0×10^5 cells/ml, 48 h): 35%
% inhibition of cell proliferation [4, 15]: 0%
% inhibition of cell proliferation [4, 16]: 3%
% inhibition of cell proliferation [4, 18]: 1%
% inhibition of cell proliferation [4, 19]: 3%
IL-12 production, fold increase vs control cells (IL-12; [20]): 25.2x
IL-12 production, fold increase vs control cells (IL-12; [21]): 7.1x
IL-12 production, fold increase vs control cells (IL-12; [22]): 26.5x
IL-12 production, fold increase vs control cells (IL-12; [23]): 10.0x
IL-12 production, fold increase vs control cells (IL-12; [24]): 8.5x
IL-12 production, fold increase vs control cells (IL-12; [25]): 4.9x
IL-12 production, fold increase vs control cells (IL-12; [26]): 13.8x
IL-12 production, fold increase vs control cells (IL-12; [27]): 8.5x
IL-6 production, fold increase vs control cells (IL-6; [20]): 3.8x
IL-6 production, fold increase vs control cells (IL-6; [21]): 1.8x
IL-6 production, fold increase vs control cells (IL-6; [22]): 4.1x
IL-6 production, fold increase vs control cells (IL-6; [23]): 1.4x
IL-6 production, fold increase vs control cells (IL-6; [24]): 6.3x
IL-6 production, fold increase vs control cells (IL-6; [25]): 2.4x
IL-6 production, fold increase vs control cells (IL-6; [26]): 3.5x
IL-6 production, fold increase vs control cells (IL-6; [27]): 2.9x
% inhibition of cell proliferation ([5]; HA 0.8 μg/ml alone): 20%
% inhibition of cell proliferation ([5]; HA 8.0 μg/ml alone): 20%
% inhibition of cell proliferation ([5]; HA 80.0 μg/ml alone): 30%
% inhibition of cell proliferation [6, 15]: 6%
% inhibition of cell proliferation [6, 28]: 15%
% inhibition of cell proliferation [6, 17]: 38%
% inhibition of cell proliferation [6, 18]: 38%
% inhibition of cell proliferation [7, 15]: 15%
% inhibition of cell proliferation [7, 28]: 26%
% inhibition of cell proliferation [7, 17]: 30%
% inhibition of cell proliferation ([8]; HA 0.008 μg/ml alone (+ saline), as in Example 6): 0%
% inhibition of cell proliferation ([8]; HA 0.08 μg/ml alone (+ saline), as in Example 6): 0%
% inhibition of cell proliferation ([8]; HA 0.8 μg/ml alone, 1.0×10^5 cells/ml, 48 h): 12%
% inhibition of cell proliferation ([8]; HA 8.0 μg/ml alone, 1.0×10^5 cells/ml, 48 h): 13%
% inhibition of cell proliferation ([8]; HA 80.0 μg/ml alone, 1.0×10^5 cells/ml, 48 h): 5%
% inhibition of cell proliferation ([8]; HA at 0.8 μg/ml alone (+ saline), 2.0×10^4 cells/ml, 24-well, 48 h): 13%
% inhibition of proliferation [9]: 0%
% inhibition of cell proliferation ([10]; HA 0.8 μg/ml alone): 7%
% inhibition of cell proliferation ([10]; HA 8.0 μg/ml alone, listed as 0.5–7.5 × 10^5 Da HA): 13%
% inhibition of cell proliferation ([11]; HA 0.8 μg/ml alone): 10%
% inhibition of cell proliferation ([11]; HA 8.0 μg/ml alone): 10%
% inhibition of cell proliferation ([11]; HA 80.0 μg/ml alone): 2%

Hyaluronic acid [<1.5 × 10^4 Da HA]
% inhibition of cell proliferation [6, 16]: 37%
% inhibition of cell proliferation [7, 16]: 5%
% inhibition of cell proliferation ([10]; HA 8.0 μg/ml alone): 24%

Hyaluronic acid [HA]
reduction of tumor volume [12]: > 85%
% inhibition of cell proliferation [7, 18]: 30%
% inhibition of cell proliferation ([10]; HA 80.0 μg/ml alone): 26%
effect on cancers [13]: reduced or eliminated
growth of cancer cells (colon-26 cancer cells): significantly inhibits
